≈ marks a conversion by molar mass, not a printed value.
What was measured:
Format in all cases: cell-based
A. Pittii/nosocomialis = experiment: MIC panel of Gram-negative bacteria (Table 7); settings: Acinetobacter pittii; EN0180 A. Pittii/nosocomialis G−
A. baumannii = experiment: MIC by broth micro-dilution; settings: A. baumannii (G−), Table 2
Bacillus cereus = experiment: MIC by broth micro-dilution; settings: Table 4, read-out: MIC (μg/ml) B. cereus
M. frederiksbergense = experiment: MIC by broth micro-dilution; settings: Table 4; read-out: MIC (μg/ml) M. frederiksbergense

CCCCCCCCCC1CC(O)=C(C(=O)CCC)C(=O)O1 (centres unmarked) [Ex. 1, 3-Butyryl-6-nonyl-4-hydroxy-5,6-dihydro-2H-pyran-2-one]
MIC (A. Pittii/nosocomialis): > 64 µg/mL | MIC (μg/ml) A. baumannii (A. baumannii): 8 to 16 µg/mL | MIC (A. baumannii; Acinetobacter baumannii, read-out: MIC (μg/ml) A. baumannii): 16 to 24 µg/mL (≈ 51.5 to 77.3 µM) | MIC (Bacillus cereus): ≤ 1 µg/mL | MIC (M. frederiksbergense): ≤ 0.5 µg/mL

Reference: patent US10471043B2, “Compounds and methods of treating bacterial infections” (ULTUPHARMA AB, priority 2015, dated 2019)
